From US20120046253A1, “STABLE PHARMACOLOGICALLY ACTIVE COMPOSITIONS INCLUDING VITAMIN D CONTAINING AND CORTICOSTEROID COMPOUNDS WITH LOW pH COMPATIBILITY” (priority 2006, published 2012)

Experiments:
[1] = Stability of the calcipotriene and betamethasone dipropionate composition at 40° C. (quantitative HPLC); format: physicochemical
Description: (§1) In both of the above cases, stability is measured after incubation in a closed container at the recited temperature for the recited amount of time; stability is determined by any quantitative assay for the recited component, and is preferably determined by HPLC methodologies known in the art.
The amount of the recited components in Table 1 were measured by quantitiative HPLC 1-2 days after the cooling (Time zero) and at the recited times after storage at the recited temperatures.
The amount of the recited components in Table 1 were measured by quantitiative HPLC 1-2 days after the cooling (Time zero) and at the recited times after storage at the recited temperatures).

[2] = reportedly; cited from earlier work
[3] = Stability of the calcipotriene and betamethasone dipropionate composition at 55° C. (quantitative HPLC); format: physicochemical; conditions: Example 1 ointment
Description: as §1

[4] = asserted in U.S. Pat. No. 5,763,426; cited from earlier work

Assay (%) Time zero ([1]; Example 1 ointment (medium chain triglyceride), 1-2 days after cooling, HPLC) [%] | Assay (%) 1 months ([1]; Example 1 ointment, stored at 40° C. 1 month) [%] | Assay (%) 2 months ([1]; Example 1 ointment, stored at 40° C. 2 months) [%] | Assay (%) 3 months ([1]; Example 1 ointment, stored at 40° C. 3 months) [%] | Assay Time zero ([1]; Example 2 ointment (polysorbate 80), time zero) [%] | Assay 1 months ([1]; Example 2 ointment, stored at 40° C. 1 month) [%] | Assay 2 months ([1]; Example 2 ointment, stored at 40° C. 2 months) [%] | Assay (%) 3 days ([3]; stored at 55° C. 3 days) [%] | Assay (%) Time zero ([3]; time zero (Table 2)) [%] | SMILES | pH at which most stable [2] | stability of crystal form [4]
95.8 | 98.0 | 97.1 | 100.5 | 99.1 | 97.9 | 97.4 | 96.4 | 95.8 | C=C1/C(=C\C=C2/CCC[C@]3(C)[C@@H]([C@H](C)/C=C/[C@@H](O)C4CC4)CC[C@@H]23)C[C@@H](O)C[C@@H]1O [Calcipotriene, calcipotriene] | greater than 8 | 
 |  |  |  |  |  |  |  |  | C=C1/C(=C\C=C2/CCC[C@]3(C)[C@@H]([C@H](C)/C=C/[C@@H](O)C4CC4)CC[C@@H]23)C[C@@H](O)C[C@@H]1O [calcipotriol hydrate] |  | surprisingly stable
